Source: patent publication US5003055A, “Anthracycline derivatives having inhibitory activity against reverse transcriptase of human immunodeficiency virus” (priority 1987, dated 1991)
Values after ≈ are worked out from the molar mass of the structure shown. Counter-ions that a name gives are not always drawn. Like-named read-outs stand apart in the source and are kept apart here.

Legend:
[1] = test system: mouse lymphocytic leukemia P-388 cells; experiment: Cytotoxicity against P-388 cells (proliferation, MTT technique); assay type: cell-based; settings: for IC50: Mus musculus, P388, 48 h, read-out: Cytotoxicity against P-388 cells (IC50, μg/ml) (B); for Cytotoxicity against P-388 cells (IC50, μg/ml) (B): 2880 min
Procedure: (b) On the other hand, the cytotoxicity was measured in the following manner. The novel anthracycline derivative of this invention was added to 5×10^3 cells of mouse lymphocytic leukemia P-388 in an incubation medium. After stirring, themixture was incubated Forty-eight hours later, the rate (%) of proliferation of the cells was measured by the MTT technique.

[2] = background statement; cited from earlier work
[3] = biological target: HIV reverse transcriptase (Human immunodeficiency virus type 1 group M subtype B, UniProt P04585); experiment: biochemical; settings: for IC50: HIV reverse transcriptase inhibitory activity (IC50, μg/ml) (A), 37° C., 30 minutes, HIV lysate; for Enzyme inhibitory activity/cytotoxicity ratio (A)/(B): ratio of IC50 HIV reverse transcriptase (A) to IC50 P-388 (B)
Procedure: (a) After treating a supernatant of a culture of HIV-infected T4-cells (Molt 4/HTLV 1116/H9) with 9.5% polyethylene glycol for 3 hours, the supernatant was centrifuged at 2500 rpm for 30 minutes to obtain a precipitate. This precipitate was lysed with a mixture comprising 33.3% glycerol, […] tris-HCl (pH 7.5), 533 mM KCl, 0.32% Triton X-100 and 3.3 mM dithiothreitol, so as to prepare an HIV lysate (2.5×10^6 PFU/ml) The activity of the reverse transcriptase present in the HIV lysate thus prepared was determined in terms of the up-take rate of [α-^32 P]dATP during the synthesis of DNA, with using rabbit-β-globin mRNA and oligo dT as the template and primer, respectively. Thus, 1 μl of the HIV lysate was added to 9 μl of an enzymatic reaction solution comprising 50 mM tris-HCl (pH 8.3), 70 mM KCl, 10 mM MgCl2, 30 mM mercaptoethanol, 90 nM dNTPs, 3.3 μg/ml oligo dT, 8.3 mU/ml human placenta RNase inhibitor, 5 μg/ml β-globin mRNA, 0.14 mCi/ml [α-^32 P]dATP. After incubating the resultant mixture at 37° C. for 30 minutes, 10% aqueous trichloroacetic acid (TCA) was added to terminate the reaction.
After completion of the reaction, the whole reaction mixture was placed on a nitrocellulose membrane filter so as to adsorb the resultant DNA into the filter. The filter was then washed with 5% TCA and 20 mM sodium pyrophosphate to remove the unreacted [α-^32 P]dATP therefrom. The amount of the resultant DNA on the nitrocellulose membrane filter was calculated by measuring its radioactivity.
The novel anthracycline derivatives of this invention were separately added to the enzymatic reaction solution. The above experiment was repeated using the so prepared enzymatic reaction solution containing the anthracycline derivative as a test compound, so that the evaluation was made of IC50 of the test compound inhibitory to the activity of the HIV reverse transcriptase, namely the concentration of the test compound which was 50% inhibitory to the activity of the HIV reverse transcriptase.

Row | Compound | IC50 ([1]; P-388, 48 hours, MTT technique) | toxicity (in words) [2] | Cytotoxicity against P-388 cells (IC50, μg/ml) (B) ([1]; P-388, 48 hours, MTT technique) | IC50 [3] | Enzyme inhibitory activity/cytotoxicity ratio (A)/(B) [3] | IC50 [1]
1 | COc1cccc2c1C(=O)c1c(O)c3c(c(O)c1C2=O)C[C@@](O)(C(=O)CO)C[C@@H]3O[C@H]1C[C@H](N)[C@H](O)[C@H](C)O1 [ADM, adriamycin, reference compound] | 0.037 µg/mL (≈ 0.0681 µM) | high toxicity | – | – | – | –
2 | COc1cccc2c1C(=O)c1c(O)c3c(c(O)c1C2=O)C[C@@](O)(C(=O)CO)C[C@@H]3O[C@H]1C[C@H](N)[C@H](O)[C@H](C)O1 [ADM.HCl, reference compound] | – | – | 0.02 µg/mL | – | – | –
3 | COCc1ccc(C(=O)OCC(=O)[C@]2(O)Cc3c(O)c4c(c(O)c3[C@@H](O[C@H]3C[C@H](N)[C@H](O)[C@H](C)O3)C2)C(=O)c2c(OC)cccc2C4=O)cc1OC [NOVA-1, 14-O-(3-methoxy-4-methoxymethylbenzoyl)adriamycin] | 0.29 µg/mL (≈ 0.402 µM) | – | – | 41.6 µM | 103 | –
4 | CCCCCCOCc1ccc(C(=O)OCC(=O)[C@]2(O)Cc3c(O)c4c(c(O)c3[C@@H](O[C@H]3C[C@H](N)[C@H](O)[C@H](C)O3)C2)C(=O)c2c(OC)cccc2C4=O)cc1OCCCCCC [NOVA-2, 14-O-(3-n-hexyloxy-4-n-hexyloxymethylbenzoyl)adriamycin] | 0.48 µg/mL (≈ 0.557 µM) | – | – | 19.7 µM | 35 | –
5 | CCCCCCCCCCCOCc1ccc(C(=O)OCC(=O)[C@]2(O)Cc3c(O)c4c(c(O)c3[C@@H](O[C@H]3C[C@H](N)[C@H](O)[C@H](C)O3)C2)C(=O)c2c(OC)cccc2C4=O)cc1OCCCCCCCCCCC [NOVA-3.HCl, 14-O-(3-n-undecyloxy-4-n-undecyloxymethylbenzoyl)adriamycin hydrochloride] | 0.49 µg/mL | – | – | 18.5 µM | 38 | –
6 | CCCCCCCCCCCOc1cc(C(=O)OCC(=O)[C@]2(O)Cc3c(O)c4c(c(O)c3[C@@H](O[C@H]3C[C@H](N)[C@H](O)[C@H](C)O3)C2)C(=O)c2c(OC)cccc2C4=O)ccc1CO [NOVA-4, 14-O-(3-n-undecyloxy-4-hydroxymethylbenzoyl)adriamycin] | 0.5 µg/mL (≈ 0.59 µM) | – | – | 14.7 µM | 25 | –
7 | CCCCCCCCCCCCCCCCCCOCc1ccc(C(=O)OCC(=O)[C@]2(O)Cc3c(O)c4c(c(O)c3[C@@H](O[C@H]3C[C@H](N)[C@H](O)[C@H](C)O3)C2)C(=O)c2c(OC)cccc2C4=O)cc1OCCCCCCCCCCCCCCCCCC [NOVA-5.HCl, 14-O-(3-n-octadecyloxy-4-n-octadecyloxymethylbenzoyl)adriamycin hydrochloride] | 3.2 µg/mL | – | – | 18.4 µM | 6.9 | –
8 | COc1cccc2c1C(=O)c1c(O)c3c(c(O)c1C2=O)C[C@@](O)(C(=O)COC(=O)c1ccc(CO)c(O)c1)C[C@@H]3O[C@H]1C[C@H](N)[C@H](O)[C@H](C)O1 [NOVA-6, 14-O-(3-hydroxy-4-hydroxymethylbenzoyl)adriamycin] | 0.15 µg/mL (≈ 0.216 µM) | – | – | 79.3 µM | 370 | –
9 | COc1cccc2c1C(=O)c1c(O)c3c(c(O)c1C2=O)C[C@@](O)(C(=O)COC(=O)c1ccc2c(c1)OC(C)(C)OC2)C[C@@H]3O[C@H]1C[C@H](N)[C@H](O)[C@H](C)O1 [NOVA-7, 14-O-(0-isopropylidene-3-hydroxy4-hydroxymethylbenzoyl)adriamycin] | – | – | – | 31.3 µM | 121 | 0.19 µg/mL (≈ 0.259 µM)
10 | COc1ccc(C(=O)OCC(=O)[C@]2(O)Cc3c(O)c4c(c(O)c3[C@@H](O[C@H]3C[C@H](N)[C@H](O)[C@H](C)O3)C2)C(=O)c2c(OC)cccc2C4=O)cc1OC [NOVA-8, 14-O-(3,4-dimethoxybenzoyl)-adriamycin] | 0.33 µg/mL (≈ 0.466 µM) | – | – | 26.8 µM | 58 | –
11 | CCCCCCOc1ccc(C(=O)OCC(=O)[C@]2(O)Cc3c(O)c4c(c(O)c3[C@@H](O[C@H]3C[C@H](N)[C@H](O)[C@H](C)O3)C2)C(=O)c2c(OC)cccc2C4=O)cc1OCCCCCC [NOVA-9, 14-O-(3,4-di-n-hexyloxybenzoyl)adriamycin] | 2.6 µg/mL (≈ 3.07 µM) | – | – | 23.6 µM | 7.8 | –
12 | CCCCCCOc1ccc(C(=O)OCC(=O)[C@]2(O)Cc3c(O)c4c(c(O)c3[C@@H](O[C@H]3C[C@H](N)[C@H](O)[C@H](C)O3)C2)C(=O)c2c(OC)cccc2C4=O)cc1OCCCCCC [NOVA-9.1/2H2 SO4] | – | – | 5.2 µg/mL | 27.1 µM | 4.4 | –
13 | CCCCCCOc1ccc(C(=O)OCC(=O)[C@]2(O)Cc3c(O)c4c(c(O)c3[C@@H](O[C@H]3C[C@H](N)[C@H](O)[C@H](C)O3)C2)C(=O)c2c(OC)cccc2C4=O)cc1OCCCCCC [NOVA-9.HCl] | – | – | 3.1 µg/mL | 17.7 µM | 4.8 | –
14 | CCCCCCCCCCCOc1ccc(C(=O)OCC(=O)[C@]2(O)Cc3c(O)c4c(c(O)c3[C@@H](O[C@H]3C[C@H](N)[C@H](O)[C@H](C)O3)C2)C(=O)c2c(OC)cccc2C4=O)cc1OCCCCCCCCCCC [NOVA-10.HCl] | 1.8 µg/mL | – | – | 16.2 µM | 8.9 | –
15 | CCCCCCCCCCCCCCCCCCOc1ccc(C(=O)OCC(=O)[C@]2(O)Cc3c(O)c4c(c(O)c3[C@@H](O[C@H]3C[C@H](N)[C@H](O)[C@H](C)O3)C2)C(=O)c2c(OC)cccc2C4=O)cc1OCCCCCCCCCCCCCCCCCC [NOVA-11.HCl] | 1.9 µg/mL | – | – | 84.4 µM | 53 | –
16 | CCCCC(=O)Oc1ccc(C(=O)OCC(=O)[C@]2(O)Cc3c(O)c4c(c(O)c3[C@@H](O[C@H]3C[C@H](N)[C@H](O)[C@H](C)O3)C2)C(=O)c2c(OC)cccc2C4=O)cc1OC(=O)CCCC [NOVA-12.HCl] | 0.22 µg/mL | – | – | 13 µM | 50 | –
